The term IC50 denotes the midpoint of a concentration-inhibition curve.

One test has as its target ORL1 receptor (Homo sapiens, UniProt P41146). Nature of the test: cell-based.
A further test relates to CHO(ORL1−) cells. In kind it is cell-based.
The test system of test [1] is mice. In words: antagonism of nociceptin-induced stimulation of horizontal locomotor activity. The test is classed as in vivo.
For test [2], the system named is mice. Nature of the test: hole board test. The test is classed as in vivo. The following applies: 5 mg/kg s.c., tested 15 minutes later; saline 150±8.

Structures can show the parent of a compound that is named as a salt. Ends that are not written are not given here. Some results are limits rather than exact numbers.

Chain of ORL1 receptor (P41146 whole entry): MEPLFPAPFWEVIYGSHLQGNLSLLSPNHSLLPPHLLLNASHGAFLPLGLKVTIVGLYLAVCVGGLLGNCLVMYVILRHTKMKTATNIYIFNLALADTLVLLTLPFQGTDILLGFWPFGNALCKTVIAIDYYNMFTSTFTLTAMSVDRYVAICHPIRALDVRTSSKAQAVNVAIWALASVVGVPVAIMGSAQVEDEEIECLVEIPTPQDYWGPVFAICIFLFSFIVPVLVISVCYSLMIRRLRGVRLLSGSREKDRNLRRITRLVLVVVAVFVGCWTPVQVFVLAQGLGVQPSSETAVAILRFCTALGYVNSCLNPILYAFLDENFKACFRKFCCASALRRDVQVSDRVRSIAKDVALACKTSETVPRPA

For the compound YGGFTGARKSARKLANQ [^1Tyr analogue], at ORL1 receptor, the IC50 worked out at 1 nM and the “maximal inhibition of forskolin-induced cAMP accumulation” value was over 90%. Besides, in the test with CHO(ORL1−) cells, the “activity on cyclase in wild type cells” value was “totally inactive”.

As to `O=C(CCCN1CCC(O)(c2ccc(Cl)cc2)CC1)c1ccc(F)cc1` [haloperidol], the “antagonism of nociceptin stimulation of locomotor activity” value in the test with mice [1] (increasing doses of antagonist) is “antagonized”.

For `C=CCN1CC[C@]23c4c5ccc(O)c4O[C@H]2C(=O)CC[C@@]3(O)[C@H]1C5` [Naloxone, Naloxone hydrochloride], the “effect on motor-stimulant effect of 100 ng nociceptin” value with mice [1] (0.0–4.5 mg/kg s.c., 10 minutes before i.c.v. nociceptin, first 10 minutes of testing) is recorded as “did not suppress”.

Turning to `CN1CC[C@]23c4c5ccc(O)c4O[C@H]2[C@@H](O)C=C[C@H]3[C@H]1C5` [morphin], the “Number of explored holes during the 20 minutes period” value in the test on mice [2] was determined as 24±2.

Source of the values: patent publication US7083932B1, “Nucleic acid molecules encoding peptides having pronociceptive properties” (Euroscreen, s.a., priority 1995, dated 2006).
